The term pIC50 denotes the IC50 on a negative log10 scale, so that one unit is a factor of ten. Lower therefore signals a large IC50.

We go through 19 compounds from patent publication US20240246967A1, “AXL COMPOUNDS” (ARCUS BIOSCIENCES, INC., priority 2021, published 2024).

pIC50: −log10 of the molar value.

For assay [1], the target named is T1, Axl (Homo sapiens, UniProt P30530).
T1 sequence (P30530 26-894): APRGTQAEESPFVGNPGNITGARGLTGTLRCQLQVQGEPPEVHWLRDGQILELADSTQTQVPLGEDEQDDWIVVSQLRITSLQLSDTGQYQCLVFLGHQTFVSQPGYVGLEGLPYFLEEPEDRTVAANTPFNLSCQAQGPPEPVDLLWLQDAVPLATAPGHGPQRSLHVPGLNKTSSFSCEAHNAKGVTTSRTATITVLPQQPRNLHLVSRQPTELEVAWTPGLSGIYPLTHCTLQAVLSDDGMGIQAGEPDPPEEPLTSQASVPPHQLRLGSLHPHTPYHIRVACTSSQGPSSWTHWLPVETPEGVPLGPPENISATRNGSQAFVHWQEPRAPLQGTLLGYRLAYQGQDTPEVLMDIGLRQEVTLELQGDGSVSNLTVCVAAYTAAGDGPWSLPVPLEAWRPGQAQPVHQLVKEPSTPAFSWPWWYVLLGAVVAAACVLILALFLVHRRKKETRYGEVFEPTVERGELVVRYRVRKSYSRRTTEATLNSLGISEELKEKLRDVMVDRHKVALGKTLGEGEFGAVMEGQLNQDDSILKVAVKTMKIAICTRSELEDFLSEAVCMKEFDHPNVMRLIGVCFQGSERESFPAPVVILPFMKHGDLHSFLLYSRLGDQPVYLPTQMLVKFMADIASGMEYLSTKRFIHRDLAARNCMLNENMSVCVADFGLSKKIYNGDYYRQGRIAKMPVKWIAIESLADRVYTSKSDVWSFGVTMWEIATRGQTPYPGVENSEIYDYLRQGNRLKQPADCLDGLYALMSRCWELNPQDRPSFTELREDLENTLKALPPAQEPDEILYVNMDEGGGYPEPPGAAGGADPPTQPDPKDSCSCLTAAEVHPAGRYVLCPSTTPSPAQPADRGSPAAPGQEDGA
Kind of assay: HTRF KinEASE-TK biochemical potency assay, AXL. Details: purchased Invitrogen. The conditions noted are these: 5 nM AXL, 700 μM ATP, 800 nM TK Substrate-biotin. In outline:
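Final conditions: 5 nM AXL, 1 nM TYRO3 or MER, 50 mM HEPES pH 7.4, 10 mM MgCl2, 0.01% BSA, 1 mM DTT, 700 μM ATP. Reaction ran 2 h at RT after 1 h preincubation with compound; HTRF signal read at 665/620 nm.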
In general terms: Time-resolved FRET reads energy transfer from a long-lived donor to a nearby acceptor.

Assay [2] addresses T1, Axl. Briefly: Axl NanoBRET intracellular kinase assay (intracellular binding, Cell Binding). Particulars: HEK-293 cells transfected with Axl-NanoLuc fusion vector; 0.35 μM K-5 NanoBRET tracer. Details: host or cells: HEK-293. In outline: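 In intact HEK-293 cells transiently expressing NanoLuc-tagged Axl, compounds compete with the K-5 tracer (0.35 μM, 2 h, 37 °C) after a 1 h preincubation. Readout is the 610/450 nm emission ratio.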

For the compound `C[C@@H]1CCCN1C1(C)CCc2ccc(-c3cnc4[nH]nc(-c5ccc(S(=O)(=O)C6CC6)cc5)c4c3)cc2CC1` (stereo partly drawn) [Example 1, 3-(4-(Cyclopropylsulfonyl)phenyl)-5-(7-methyl-7-((R)-2-methylpyrrolidin-1-yl)-6,7,8,9-tetrahydro-5H-benzo[7]annulen-2-yl)-1H-pyrazolo[3,4-b]pyridine], the pIC50 in assay [1] and in assay [2] was greater than 7.00 each time.
In the case of `CC1(N2CCOCC2)CCc2ccc(-c3cnc4[nH]nc(-c5ccc(S(=O)(=O)C6CC6)cc5)c4c3)cc2CC1` (centres unmarked) [Example 2, 4-(2-{3-[4-(Cyclopropanesulfonyl)phenyl]-1H-pyrazolo[3,4-b]pyridin-5-yl}-7-methyl-6,7,8,9-tetrahydro-5H-benzo[7]annulen-7-yl)morpholine], the pIC50 in assay [1] and in assay [2] was less than 6.00 throughout.
As for `CC1(N2CCC[C@@H]2CO)CCc2ccc(-c3cnc4[nH]nc(-c5ccc(S(=O)(=O)C6CC6)cc5)c4c3)cc2CC1` (stereo partly drawn) [Example 3, [(2R)-1-(2-{3-[4-(Cyclopropanesulfonyl)phenyl]-1H-pyrazolo[3,4-b]pyridin-5-yl}-7-methyl-6,7,8,9-tetrahydro-5H-benzo[7]annulen-7-yl)pyrrolidin-2-yl]methanol], the pIC50 in assay [1] and in assay [2] was greater than 7.00 throughout.
For the compound `C[C@@H]1CCCN1C1CCc2ccc(-c3cnc4[nH]nc(-c5ccc(C6(O)CCOC6)c(Cl)c5)c4c3)cc2CC1` (stereo partly drawn) [Example 63, 3-[2-Chloro-4-(5-{7-[(2R)-2-methylpyrrolidin-1-yl]-6,7,8,9-tetrahydro-5H-benzo[7]annulen-2-yl}-1H-pyrazolo[3,4-b]pyridin-3-yl)phenyl]oxolan-3-ol], the pIC50 in assay [1] and in assay [2] was greater than 7.00 throughout.
Take `C[C@@H]1CCCN1C1CCc2ccc(-c3cnc4[nH]nc(-c5ccc(C6(O)COC6)c(Cl)c5)c4c3)cc2CC1` (stereo partly drawn) [Example 64, 3-[2-Chloro-4-(5-{7-[(2R)-2-methylpyrrolidin-1-yl]-6,7,8,9-tetrahydro-5H-benzo[7]annulen-2-yl}-1H-pyrazolo[3,4-b]pyridin-3-yl)phenyl]oxetan-3-ol]: the pIC50 in assay [1] is greater than 7.00; in assay [2] it was less than 6.00.
For `C[C@@H]1CCCN1C1CCc2ccc(-c3cnc4[nH]nc(-c5cnc(C(C)(C)O)c(Cl)c5)c4c3)cc2CC1` (stereo partly drawn) [Example 65, 2-[3-Chloro-5-(5-{7-[(2R)-2-methylpyrrolidin-1-yl]-6,7,8,9-tetrahydro-5H-benzo[7]annulen-2-yl}-1H-pyrazolo[3,4-b]pyridin-3-yl)pyridin-2-yl]propan-2-ol] the same measures were greater than 7.00 and greater than 7.00.
On the same counts, the results for `COC1CCN(C(=O)c2ccc(-c3n[nH]c4ncc(-c5ccc6c(c5)CC[C@@H](N5CCCC5)CC6)cc34)cc2Cl)CC1` [Example 66, (S)-(2-Chloro-4-(5-(7-(pyrrolidin-1-yl)-6,7,8,9-tetrahydro-5H-benzo[7]annulen-2-yl)-1H-pyrazolo[3,4-b]pyridin-3-yl)phenyl)(4-methoxypiperidin-1-yl)methanone] are greater than 7.00 and greater than 7.00.
On to `COC1CCN(C(=O)c2ccc(-c3n[nH]c4ncc(-c5ccc6c(c5)CCC(C)(N5CCC[C@H]5C)CC6)cc34)cc2Cl)CC1` (stereo partly drawn) [Example 67, 1-[2-Chloro-4-(5-{7-methyl-7-[(2R)-2-methylpyrrolidin-1-yl]-6,7,8,9-tetrahydro-5H-benzo[7]annulen-2-yl}-1H-pyrazolo[3,4-b]pyridin-3-yl)benzoyl]-4-methoxypiperidine], for which the negative-log IC50 (pIC50) in assay [1] and in assay [2] was greater than 7.00 in each case.
Regarding `C[C@@H]1CCCN1C1(C)CCc2ccc(-c3cnc4[nH]nc(-c5ccc(C(N)=O)c(Cl)c5)c4c3)cc2CC1` (stereo partly drawn) [Example 68, 2-Chloro-4-(5-{7-methyl-7-[(2R)-2-methylpyrrolidin-1-yl]-6,7,8,9-tetrahydro-5H-benzo[7]annulen-2-yl}-1H-pyrazolo[3,4-b]pyridin-3-yl)benzamide], the pIC50 in assay [1] and in assay [2] was greater than 7.00 throughout.
Regarding `C[C@@H]1CCCN1C1(C)CCc2ccc(-c3cnc4[nH]nc(-c5ccc(C(=O)NC6CC6)cc5)c4c3)cc2CC1` (stereo partly drawn) [Example 69, N-Cyclopropyl-4-(5-{7-methyl-7-[(2R)-2-methylpyrrolidin-1-yl]-6,7,8,9-tetrahydro-5H-benzo[7]annulen-2-yl}-1H-pyrazolo[3,4-b]pyridin-3-yl)benzamide], the pIC50 in assay [1] and in assay [2] was greater than 7.00 throughout.
For `CC(C)NC(=O)c1ccc(-c2n[nH]c3ncc(-c4ccc5c(c4)CCC(C)(N4CCC[C@H]4C)CC5)cc23)cc1` (stereo partly drawn) [Example 70, 4-(5-{7-Methyl-7-[(2R)-2-methylpyrrolidin-1-yl]-6,7,8,9-tetrahydro-5H-benzo[7]annulen-2-yl}-1H-pyrazolo[3,4-b]pyridin-3-yl)-N-(propan-2-yl)benzamide], the negative-log IC50 (pIC50) in assay [1] and in assay [2] was greater than 7.00 in each case.
Consider `COCCNC(=O)c1ccc(-c2n[nH]c3ncc(-c4ccc5c(c4)CCC(C)(N4CCC[C@H]4C)CC5)cc23)cc1` (stereo partly drawn) [Example 72, N-(2-Methoxyethyl)-4-(5-{7-methyl-7-[(2R)-2-methylpyrrolidin-1-yl]-6,7,8,9-tetrahydro-5H-benzo[7]annulen-2-yl}-1H-pyrazolo[3,4-b]pyridin-3-yl)benzamide], for which the negative-log IC50 (pIC50) in assay [1] and in assay [2] was greater than 7.00 in each case.
For `CCC1(N2CCC[C@H]2C)CCc2ccc(-c3cnc4[nH]nc(-c5ccc(C(N)=O)c(Cl)c5)c4c3)cc2CC1` (stereo partly drawn) [Example 73, 2-Chloro-4-(5-{7-ethyl-7-[(2R)-2-methylpyrrolidin-1-yl]-6,7,8,9-tetrahydro-5H-benzo[7]annulen-2-yl}-1H-pyrazolo[3,4-b]pyridin-3-yl)benzamide], the pIC50 in assay [1] and in assay [2] was greater than 7.00 in each case.
With `CCC1(N2CCC[C@@H]2CO)CCc2ccc(-c3cnc4[nH]nc(-c5ccc(C(N)=O)c(Cl)c5)c4c3)cc2CC1` (stereo partly drawn) [Example 74, 2-Chloro-4-(5-{7-ethyl-7-[(2R)-2-(hydroxymethyl)pyrrolidin-1-yl]-6,7,8,9-tetrahydro-5H-benzo[7]annulen-2-yl}-1H-pyrazolo[3,4-b]pyridin-3-yl)benzamide], the pIC50 in assay [1] and in assay [2] was greater than 7.00 throughout.
For `CCC1(N2CCC[C@H]2CO)CCc2ccc(-c3cnc4[nH]nc(-c5ccc(C(N)=O)c(Cl)c5)c4c3)cc2CC1` (stereo partly drawn) [Example 75, 2-Chloro-4-(5-{7-ethyl-7-[(2S)-2-(hydroxymethyl)pyrrolidin-1-yl]-6,7,8,9-tetrahydro-5H-benzo[7]annulen-2-yl}-1H-pyrazolo[3,4-b]pyridin-3-yl)benzamide], the pIC50 in assay [1] and in assay [2] was greater than 7.00 in each case.
As for `C[C@@H]1CCCN1C1(C)CCc2ccc(-c3cnc4[nH]nc(-c5ccc(C(=O)N6CCC6)cc5)c4c3)cc2CC1` (stereo partly drawn) [Example 76, (2R)-1-(2-{3-[4-(Azetidine-1-carbonyl)phenyl]-1H-pyrazolo[3,4-b]pyridin-5-yl}-7-methyl-6,7,8,9-tetrahydro-5H-benzo[7]annulen-7-yl)-2-methylpyrrolidine], the pIC50 in assay [1] and in assay [2] was greater than 7.00 in each case.
With `NC(=O)c1ccc(-c2n[nH]c3ncc(-c4ccc5c(c4)CCC(N4CCCC4)CC5)cc23)cc1Cl` (centres unmarked) [Example 77, 2-Chloro-4-(5-(7-(pyrrolidin-1-yl)-6,7,8,9-tetrahydro-5H-benzo[7]annulen-2-yl)-1H-pyrazolo[3,4-b]pyridin-3-yl)benzamide], the pIC50 in assay [1] and in assay [2] was greater than 7.00 in each case.
As to `NC(=O)c1ccc(-c2n[nH]c3ncc(-c4ccc5c(c4)CCC(N4CCCC4)CC5)cc23)cc1` (centres unmarked) [Example 78, 4-(5-(7-(Pyrrolidin-1-yl)-6,7,8,9-tetrahydro-5H-benzo[7]annulen-2-yl)-1H-pyrazolo[3,4-b]pyridin-3-yl)benzamide], the pIC50 in assay [1] and in assay [2] was greater than 7.00 each time.
Consider `Cc1cc(-c2n[nH]c3ncc(-c4ccc5c(c4)CCC(N4CCCC4)CC5)cc23)cc(F)c1C(N)=O` (centres unmarked) [Example 79, 2-Fluoro-6-methyl-4-(5-(7-(pyrrolidin-1-yl)-6,7,8,9-tetrahydro-5H-benzo[7]annulen-2-yl)-1H-pyrazolo[3,4-b]pyridin-3-yl)benzamide], for which the pIC50 in assay [1] and in assay [2] was greater than 7.00 in each case.
